Experimental data: PubChem BioAssay AID1918998 (Molecular Pharmacology Branch, DTP, NCI, 2023)
pIC50: −log10 of the molar value. Values joined by “and” are separate entries in the source; they are usually repeats but may differ in a detail not shown here. Identical values can stand only once.

System: 521955-158-R2-J5-PDC complex spheroid growth
Assay: Anticancer human tumor 521955-158-R2-J5-PDC patient-derived pancreatic carcinoma cell line growth inhibition [AhR]
Details: for viability, T/C: stronger effect = lower value
Text: Multicellular complex tumor spheroid response to aryl hydrocarbon receptor antagonists in combination with a variety of drugs and investigational agents in selected tumor cell lines
The current study was undertaken to assess response to aryl hydrocarbon receptor antagonists in combination with standard-of-care drugs and investigational agents in solid tumor complex spheroid models. Complex spheroids include a stromal component modeled by human endothelial cells (HUVEC) and fibroblasts modeled by human mesenchymal stem cells (MSCs). The concentration ranges selected for each drug and investigational agent were based upon clinically achievable concentrations if the clinical Cmax of the agent was known.
Compounds. The drugs and investigational agents: BAY 2416964 (NSC825713), GNF351 (NSC835774), CH-223191 (NSC835775), CPI-455 (NSC825282), aza-TdCyd (NSC777586), decitabine (NSC127716), belinostat (NSC758774), entinostat (NSC756642), pevonedistat (NSC761192), tazemetostat (NSC777109), talazoparib (NSC765396), olaparib (NSC753686), selinexor (NSC780203), nedisertib (M3814, NSC802822), bortezomib (NSC756655), venetoclax (NSC766270), doxorubicin (NSC123127), elimusertib (BAY189344, NSC800525), ceralasertib (AZD6738, NSC777638), TAK-243 (NSC785004), alisertib (NSC759677), etoposide (NSC141540), topotecan (NSC609699), eribulin (NSC707389), gemcitabine (NSC613327), carboplatin (NSC241240), cisplatin (NSC119875), and SN-38 (NSC673596) were obtained from the National Cancer Institute (NCI) Developmental Therapeutics Program Chemical Repository (32). The FDA-approved anticancer drug set is available from the Developmental Therapeutics Program at https://dtp.cancer.gov/organization/dscb/obtaining/available plates.htm. […] The stock solutions were prepared in dimethyl sulfoxide (DMSO, Sigma-Aldrich, St. Louis, MO, cat. D2650), except for the platinum compounds which were prepared in saline (Quality Biological, Gaithersburg, MD, cat. 114-055-101), at 800-fold the tested concentration and stored at -70 degrees C prior to their use. All drugs and investigational agents were tested over a range starting from a high concentration at or near the clinical Cmax and decreasing in half-log increments. If the clinical Cmax for an agent had not been determined, the highest concentration tested was 10 microM (Table 1).
Cell Culture. All cells were maintained in an incubator at 37 degrees C and 5% CO2 with 95% humidity. The PDC lines were cultured according to standard operating procedures established by the NCI PDMR (https://pdmr.cancer.gov). Briefly, all PDCs were thawed and cultured in Matrigel-coated flasks prepared with a working solution of 1X Ham's F-12 nutrient mix, without supplementation (Invitrogen, Waltham, MA, cat. 11765054), 100 U/mL penicillin-streptomycin (Invitrogen, cat. 15140122), and 2.5% Matrigel (Corning Inc., Corning, NY, cat. 354248) for the first three passages. All PDCs were cultured in complete DMEM/F-12 media containing advanced DMEM/F-12 (Invitrogen, cat. 12634028), 4.9% defined fetal bovine serum, heat inactivated (HyClone Laboratories Inc., Logan, UT, cat. SH30070.03HI), 389 ng/mL hydrocortisone (Sigma-Aldrich, cat. H4001), 9.7 ng/mL human EGF recombinant protein (Invitrogen, cat. PHG0313), 23.4 microg/mL adenine (Sigma-Aldrich, cat. A2786), 97.3 U/mL penicillin-streptomycin (Invitrogen, cat. 15140122), 1.9 mM L-glutamine (Invitrogen, cat. 25030081), and 9.7 microM Y-27632 dihydrochloride (Tocris Bioscience, Bristol, United Kingdom, cat. 1254). The PDCs were cultured in complete DMEM/F12 media without 10 microM Y-27632 dihydrochloride for at least two passages prior to the screen. The established cell lines NCI-H1341 and […] were cultured in DMEM/F-12, HEPES (Invitrogen, cat. 11330032), 5% defined fetal bovine serum (HyClone Laboratories Inc., cat. SH30070.03), ITS premix universal culture supplement [insulin (5 microg/mL), transferrin (5 microg/mL), and selenious acid (5 ng/mL)] […]
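Throughout, for viability, T/C: spheroids mix tumor cells with HUVEC endothelium and human MSC stroma; luminescence taken as viability surrogate after a week of drug exposure.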

| Structure (SMILES) | pIC50 (curve of compound) | viability, T/C (compound 0.0316 µM) | viability, T/C (compound 0.1 µM) | viability, T/C (compound 0.316 µM) | viability, T/C (compound 1 µM) | viability, T/C (compound 3.16 µM) | viability, T/C (compound 10 µM) | other results |
| --- | --- | --- | --- | --- | --- | --- | --- | --- |
| COc1cccc2c1C(=O)c1c(O)c3c(c(O)c1C2=O)CC(O)(C(=O)CO)CC3OC1CC(N)C(O)C(C)O1 (configuration not stated) | 6.81 and > 7.50 | 60.2% and 42.4% and 46.4% | 51.7% and 29.8% and 35.3% | 40.5% and 30.9% and 23.8% | 2.19% and 6.39% and 4.25% | 3.29% and 2.59% and 2.1% | 12.3% and 10.8% and 14% | – |
| Cc1ccccc1N=Nc1ccc(NC(=O)c2ccnn2C)c(C)c1 | – | – | – | – | – | – | – | pIC50 (compound alone, run of 06/14/2022): < 5.00 |
| Cc1cncc(-c2nc(NCCc3c[nH]c4ccccc34)c3ncn(C(C)C)c3n2)c1 | – | – | – | – | – | – | – | pIC50 (compound alone, run of 06/06/2022): < 5.00 |
| Cn1ncnc1C1c2n[nH]c(=O)c3cc(F)cc(c23)NC1c1ccc(F)cc1 (configuration not stated) | < 7.00 | 85.7% and 73.9% and 97.8% | 84.5% and 74% and 80.7% | – | – | – | – | viability, T/C (compound 0.000316 µM): 106% and 64.7% and 90.7%; viability, T/C (compound 0.001 µM): 103% and 97.9% and 110%; viability, T/C (compound 0.00316 µM): 94.6% and 105% and 89.1%; viability, T/C (compound 0.01 µM): 94.8% and 75% and 89.5% |
| NS(=O)(=O)OCC1CC(n2ccc3c(NC4CCc5ccccc54)ncnc32)CC1O (configuration not stated) | 5.88 and 6.22 | 86.2% and 98.4% and 88.1% | 99.3% and 98.1% and 95.9% | 83.6% and 87.9% and 66% | 54.8% and 54.6% and 36.6% | 36.5% and 32.9% and 19.3% | 30.5% and 21% and 16.8% | – |
| Nc1ccccc1NC(=O)c1ccc(CNC(=O)OCc2cccnc2)cc1 | 5.29 and 5.26 and 5.49 | 97.7% and 110% and 106% | 123% and 118% and 108% | 106% and 127% and 115% | 98.9% and 105% and 80% | 63.6% and 66.5% and 53.9% | 31.6% and 32.4% and 21.6% | – |
| Nc1ccn(C2OC(CO)C(O)C2(F)F)c(=O)n1 (configuration not stated) | 6.23 and 6.33 and 6.44 | 73.8% and 54.7% and 44.6% | 79.4% and 73.8% and 60.9% | 62.2% and 61% and 53.9% | 39.4% and 28.6% and 24.9% | 29.8% and 15.9% and 17.8% | 28.7% and 13.2% and 15.3% | – |
| Nc1ncn(C2CC(O)C(CO)S2)c(=O)n1 (configuration not stated) | < 6.52 | – | – | – | – | – | – | viability, T/C (compound 0.000949 µM): 104% and 88.3% and 99.6%; viability, T/C (compound 0.003 µM): 100% and 82.5% and 108%; viability, T/C (compound 0.00949 µM): 97.7% and 84.6% and 93%; viability, T/C (compound 0.03 µM): 93.5% and 74.3% and 75.1%; viability, T/C (compound 0.0949 µM): 98.7% and 75.1% and 73.7%; viability, T/C (compound 0.3 µM): 91.9% and 72.8% and 71.8% |

Second part, led by results:

| pIC50 (curve of compound) | Structure (SMILES) | viability, T/C (compound 0.0316 µM) | viability, T/C (compound 0.1 µM) | viability, T/C (compound 0.316 µM) | viability, T/C (compound 1 µM) | viability, T/C (compound 3.16 µM) | viability, T/C (compound 10 µM) | other results |
| --- | --- | --- | --- | --- | --- | --- | --- | --- |
| 6.04 and 6.80 and 6.25 | Nc1ncn(C2CC(O)C(CO)O2)c(=O)n1 (configuration not stated) | 88.8% and 87.9% and 88.9% | 73% and 52.6% and 68.5% | 65.5% and 53.7% and 63% | 48.3% and 38.4% and 39.5% | – | – | viability, T/C (compound 0.00316 µM): 92.7% and 87.2% and 101%; viability, T/C (compound 0.01 µM): 90.8% and 72.2% and 80.4% |
| 5.26 and < 5.00 and 5.48 | O=C(C=Cc1cccc(S(=O)(=O)Nc2ccccc2)c1)NO | 97.4% and 85.1% and 115% | 95.1% and 99.1% and 103% | 94.2% and 96.2% and 102% | 88.4% and 104% and 69.3% | 59.1% and 79.9% and 54.3% | 40.5% and 52.5% and 24.2% | – |
| 6.59 and 6.79 and 7.31 | O=C(C=Cn1cnc(-c2cc(C(F)(F)F)cc(C(F)(F)F)c2)n1)NNc1cnccn1 | – | – | – | – | – | – | viability, T/C (compound 0.00949 µM): 73.8% and 59.8% (2×); viability, T/C (compound 0.03 µM): 59.6% and 58.9% and 58.5%; viability, T/C (compound 0.0949 µM): 50.6% and 38.9% and 40.5%; viability, T/C (compound 0.3 µM): 55.6% and 49.5% and 37.7%; viability, T/C (compound 0.949 µM): 45.3% and 45.9% and 37.6%; viability, T/C (compound 3 µM): 29.1% and 24.8% and 27.1% |
| < 5.00 | O=C(c1cc(Cc2n[nH]c(=O)c3ccccc23)ccc1F)N1CCN(C(=O)C2CC2)CC1 | 95.8% and 118% and 96.5% | 104% and 72.7% and 112% | 117% and 80.1% and 96% | 89.8% and 84.7% and 92.4% | 104% and 92.2% and 90.4% | 84.5% and 65.4% and 76.3% | – |
